According to PMC11079024, “Identification of a family of species-selective complex I inhibitors as potential anthelmintics” (Nature Communications, 2024):
Read-outs that look alike come from different tables or passages of the source.

Legend:
[1] = tested on: ben-1 mutant (ECA882) C. elegans; assay: microbe, parasite or virus in culture; settings: Caenorhabditis elegans
Method in brief: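 Development and viability scored from single well images as total worm pixels divided by the matching DMSO control value, mean of ≥3 replicates. Worms added as synchronized L1s to HB101 suspension in liquid NGM with compound (1% DMSO v/v), grown 6 days at 20 °C with shaking.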

in vitro = settings: human
[2] = read-out: C. elegans ben-1(e1880) development/viability

Q: With `Cc1nc2ccccc2n1CCOc1ccccc1Cl` [Compound 5561642] as the compound, how does the LC50 ([1]; read-out: C. elegans (ben-1) Development & Viability Assay LC50) read?
A: 636 µM

Q: What about the viability at 1 µM [1, 2] of the same compound?
A: 97%

Q: What about the viability at 2 µM [1, 2] of the same compound?
A: 98.6%

Q: What about the viability at 3.9 µM [1, 2] of the same compound?
A: 100%

Q: What about the viability at 15.6 µM [1, 2] of the same compound?
A: 99.1%

Q: What about the viability at 31.3 µM [1, 2] of the same compound?
A: 100%

Q: What about the viability at 62.5 µM [1, 2] of the same compound?
A: 91.8%

Q: What about the viability at 125 µM [1, 2] of the same compound?
A: 98.9%

Q: And the viability at 250 µM [1, 2]?
A: 96.4%

Q: And the viability at 500 µM [1, 2]?
A: 35.3%

Q: And the viability at 1000 µM [1, 2]?
A: 46.7%

Q: What about the LC50 ([1]; read-out: C. elegans ben-1 log10 LC50 (converted)) of the same compound?
A: 635 µM

Q: And the “Screen "Hit"” value (L1 wild-type C. elegans; 50 μM, […], hit = relative motility below 0.25 3 hours after removal of KCN)?
A: Y (hits were identified as compounds that reduced relative motility below 0.25 (75% reduction))

Q: And the “C. elegans KCN Survival” value (L1 wild-type C. elegans; Dose 0.2 µM, mean of at least three biological replicates)?
A: 0.982

Q: And the “C. elegans KCN Survival” value (L1 wild-type C. elegans; Dose 0.39 µM)?
A: 1.047

Q: What about the “C. elegans KCN Survival” value (L1 wild-type C. elegans; Dose 1.56 µM) of the same compound?
A: 0.991

Q: And the “C. elegans KCN Survival” value (L1 wild-type C. elegans; Dose 3.13 µM)?
A: 0.985

Q: What about the “C. elegans KCN Survival” value (L1 wild-type C. elegans; Dose 6.25 µM) of the same compound?
A: 0.849

Q: What about the “C. elegans KCN Survival” value (L1 wild-type C. elegans; Dose 12.5 µM) of the same compound?
A: 0.500

Q: What about the “C. elegans KCN Survival” value (L1 wild-type C. elegans; Dose 25 µM) of the same compound?
A: 0.148

Q: What about the “C. elegans KCN Survival” value (L1 wild-type C. elegans; Dose 50 µM) of the same compound?
A: 0.182

Q: And the CC50 at 2 days (in vitro)?
A: 93.1 µM

Q: What about the viability at 2 days, 3.13 µM (in vitro; HEK293 cells (Flp-In-293), HEK293 viability, Dose 3.13 µM) of the same compound?
A: 100%

Q: What about the viability at 2 days, 6.25 µM (in vitro; HEK293 cells (Flp-In-293), HEK293 viability, Dose 6.25 µM) of the same compound?
A: 100%

Q: And the viability at 2 days, 12.5 µM (in vitro; HEK293 cells (Flp-In-293), HEK293 viability, Dose 12.5 µM)?
A: 100%

Q: And the viability at 2 days, 25 µM (in vitro; HEK293 cells (Flp-In-293), HEK293 viability, Dose 25 µM)?
A: 100%

Q: What about the viability at 2 days, 50 µM (in vitro; HEK293 cells (Flp-In-293), HEK293 viability, Dose 50 µM) of the same compound?
A: 81.4%

Q: What about the viability at 2 days, 100 µM (in vitro; HEK293 cells (Flp-In-293), HEK293 viability, Dose 100 µM) of the same compound?
A: 46.4%
